Laboratory results as given in patent publication US11702417B2, “Compounds for improving mRNA splicing” (The General Hospital Corporation, priority 2015, dated 2023).

Tested on: FD (familial dysautomonia) IKBKAP minigene, exon 20 inclusion, in HEK293T cells
Assay: Primary splicing assay (FD IKBKAP minigene, Firefly/Renilla luciferase reporter in HEK293T)
Assay type: cell-based, human
Conditions: Homo sapiens, HEK-293T, Firefly/Renilla ratio, 24 hours of treatment; for Emax: max efficacy in Primary Assay, kinetin and DMSO as positive and negative controls, read-out: Emax (%); for EC (maximum kinetin efficacy): HEK293T, read-out: ECk (compound concentration at which the maximum kinetin efficacy (200 μM) is reached)
Method: As used herein, the expression “ECk” refers to the compound concentration at which the maximum kinetin efficacy (200 μM) is reached.
Splicing analysis was made possible by using an FD (familial dysautomonia) IKBKAP minigene which contained exon 19 through exon 21, including intervening introns, and also the T→C Thymine to cytosine transition located 6 base-pairs from the end of IKBKAP exon 20; See SEQ ID NO:3 for the complete sequence of plasmid pcDNA3.1/V5HisTOPO with Renilla-Familial Dysautonomia minigene-Firefly. Firefly luciferase (SEQ ID NO:14) was utilized as a splicing reporter, located downstream of exon 21, and Renilla luciferase (SEQ ID NO:13) was used as a control, located upstream of exon 19. The sequence of exon 19 is presented as SEQ ID NO:7; the Intron between Exon 19 and Exon 20 is SEQ ID NO:8; exon 20 is SEQ ID NO:9; the intron between […]; exon 21 is SEQ ID NO: 11, and the spliced sequence of exons 19-20-21 is SEQ ID NO:12. HEK293T cells were plated in a 6-well plate 24 hours prior to transfection. Transfection was carried out using a mixture of Opti-MEM (GIBCO ref. 31985), IKBKAP minigene, and Fugene HID (PROMEGA ref. E2311), incubated in DMEM media containing HEK293T cells at 37° C. The ratio of Opti-MEM, minigene, and Fugene was kept at approximately 9:1.5:1, with a total volume of 150 μL of transfection mixture applied per well.
After 4 hours of transfection, the cells were then plated in a 96-well plate coated with poly-L-lysine (SIGMA cat.P4707) for treatment scheduled 24 hours later. […] After 24 hours of treatment, cells were washed in the poly-L-lysine coated 96-well plate using PBS and subsequently harvested using Passive Lysis Buffer (Promega cat.E196). Cell lysate was transferred to a black and white 96-well plate and analyzed for splicing correction using a Glomax luminometer (PROMEGA GloMax® 96 Microplate Luminometer w/Dual Injectors cat.E6521) and Promega Dual Glo Firefly and Stop and Glo Renilla reagents (Cat.E196). The compound's ability to correct splicing and promote exon 20 inclusion was marked by an increase in Firefly signal. Renilla signal, which is independent of exon 20 inclusion, was used to correct for cell number. Using the ratio of Firefly to Renilla signal, a dose response curve was produced, which referenced kinetin and DMSO Firefly/Renilla ratios as positive and negative controls, respectively.

SMILES | Emax [%] | EC (maximum kinetin efficacy) [µM]
CC(=O)Oc1c[nH]c2nc(Cl)nc(NCc3ccco3)c12 [(252)] | 43 | –
CCCOc1nc2c(NCc3ccncc3)nc(Cl)nc2[nH]1 [(282)] | 233 | 0.42
Clc1cc(NCc2ccco2)n2ccnc2n1 [(288)] | 56 | –
Clc1nc(NCc2ccco2)c2ncn(Cc3cccnc3)c2n1 [(76)] | 69 | –
Clc1nc(NCc2ccncc2)c2nc(OC3CCC3)[nH]c2n1 [(294)] | 183 | 0.44
c1csc(CNc2[nH]cnc3ncnc2-3)c1 [(438)] | 44 | –
CNC(=O)c1c[nH]c2nc(Cl)nc(NCc3ccco3)c12 [(172)] | 61 | –
Clc1nc(NCc2nccs2)c2nc(OC3CCC3)[nH]c2n1 [(289)] | 128 | 0.87
Clc1nc(NCc2ccco2)c2ccn(C3CCOCC3)c2n1 [(182)] | 20 | –
c1cc(CNc2ncnc3[nH]cnc23)ccn1 [(404)] | 51 | –
C[C@@H](C#N)n1ccc2c(NCc3ccco3)nc(Cl)nc21 [(216)] | 16 | –
Cc1cccc(CCNc2ncnc3[nH]cnc23)c1 [(25)] | – | 9.35
c1cncc(CNc2ncnc3[nH]cnc23)c1 [(7)] | 39 | –
CCOc1nc2c(NCc3ccco3)nc(Cl)nc2[nH]1 [(233)] | 152 | 1.59
c1cncc(CCNc2ncnc3[nH]cnc23)c1 [(41)] | 35 | –
Clc1nc(NCc2ccco2)c2nc(OCC#Cc3ccccc3)[nH]c2n1 [(474)] | 24.9 | –
CCCCOc1nc2c(NCc3nccs3)nc(Cl)nc2[nH]1 [(318)] | 186 | 0.54
COc1nc2c(NCc3ccncn3)nc(Cl)nc2[nH]1 [(261)] | 143 | 2.62
CCCOc1nc2c(NCc3ccncc3)nc(Cl)nc2n1CCO [(339)] | 188 | 1.31
CC(F)(F)COc1nc2c(NCc3ccco3)nc(Cl)nc2[nH]1 [(390)] | 201 | 0.74
Cc1[nH]c2nc(Cl)nc(NCc3ccncn3)c2c1F [(204)] | 27 | –
Clc1nc(NCc2nccs2)c2nc(OCc3cccnc3)[nH]c2n1 [(506)] | 144 | 1.14
FC(F)(F)CCn1ccc2c(NCc3ccco3)nc(Cl)nc21 [(160)] | 85 | –
CNC(=O)c1cc2c(NCc3ccco3)nc(Cl)nc2[nH]1 [(187)] | 111 | –
OCCn1ccc2c(NCc3ccncc3)nc(Cl)nc21 [(122)] | 256 | 5.65
OCc1cc2c(NCc3ccco3)nc(Cl)nc2[nH]1 [(170)] | 92 | 49.5
Cc1ccoc1CNc1ncnc2[nH]cnc12 [(54)] | 13 | –

SMILES | Emax [%] | EC (maximum kinetin efficacy) [µM]
CC(C)(COc1nc2c(NCc3nccs3)nc(Cl)nc2[nH]1)OCc1ccccc1 [(400)] | 11.4 | –
Clc1nc(NCc2ccccn2)c2nc[nH]c2n1 [(356)] | 17 | –
CC(F)(F)COc1nc2c(NCc3nccs3)nc(Cl)nc2[nH]1 [(388)] | 215 | 0.68
c1coc(CNc2ncnc3[nH]c(C4CC4)nc23)c1 [(96)] | 65 | –
c1nc(NCc2cnn[nH]2)c2nc[nH]c2n1 [(406)] | 20 | –
Cc1noc(-c2cc3c(NCc4ccco4)nc(Cl)nc3[nH]2)n1 [(246)] | 22 | –
CNc1nc2c(NCc3ccco3)nc(Cl)nc2n1CCO [(202)] | 137 | 9.35
Clc1nc(NCc2nccs2)c2nc(OC3COC3)[nH]c2n1 [(265)] | 119 | 7.33
Cc1nc(NCc2ccco2)c2nc[nH]c2n1 [(45)] | 56 | –
COc1nc2c(NCc3ccncc3)nc(Cl)nc2[nH]1 [(184)] | 169 | 3.62
O=c1cc(CNc2nc(Cl)nc3[nH]cnc23)cc[nH]1 [(255)] | 42 | –
OCCn1ccc2c(NCc3ccco3)ncnc21 [(74)] | 64 | –
FC(F)(F)c1ccc(CCNc2ncnc3[nH]cnc23)cc1 [(26)] | 66 | –
Clc1nc(NCc2cccnn2)c2cc[nH]c2n1 [(174)] | 37 | –
Clc1nc(NCc2ccncc2)c2nc(OCC3CCCC3)[nH]c2n1 [(334)] | 177 | 0.87
O=c1cc(CNc2nc(Cl)nc3[nH]ccc23)cc[nH]1 [(248)] | 10 | –
c1c[nH]c(CNc2ncnc3[nH]cnc23)n1 [(6)] | 21 | –
COc1cc(CNc2nc(Cl)nc3[nH]ccc23)ccn1 [(237)] | 21 | –
COCc1c[nH]c2nc(Cl)nc(NCc3ccco3)c12 [(158)] | 20 | 13.4
Clc1nc2c(c(NCc3ccco3)n1)CCC2 [(466)] | 221 | 3.66
CC(=O)N1Cc2nc(Cl)nc(NCc3nccs3)c2C1 [(510)] | 20 | –
Clc1nc(NCc2ccco2)c2nc[nH]c2n1 [(323)] | 26 | –
Clc1nc(NCc2cnccn2)c2cc[nH]c2n1 [(353)] | 78 | –
Clc1nc(NCc2cc3ccccc3o2)c2cc[nH]c2n1 [(163)] | 35 | –
N#CCc1nc2c(NCc3ccco3)nc(Cl)nc2[nH]1 [(224)] | 139 | 9.49
FCCn1cc(Cl)c2c(NCc3ccco3)nc(Cl)nc21 [(212)] | 71 | –
Fc1cccc(CCNc2ncnc3[nH]cnc23)c1 [(28)] | 98 | 123

SMILES | Emax [%] | EC (maximum kinetin efficacy) [µM]
Clc1nc(NCc2ccncn2)c2cn[nH]c2n1 [(220)] | 153 | 8.62
Clc1nc(NCc2nccs2)c2nc(C3CCC3)[nH]c2n1 [(240)] | 124 | 18.2
Clc1nc(NCc2ccnnc2)c2nc[nH]c2n1 [(179)] | 49 | –
CCNc1nc2c(NCc3ccco3)nc(Cl)nc2[nH]1 [(243)] | 120 | 17
Clc1cc(NCc2ccncn2)n2ccnc2n1 [(298)] | 21 | –
CN(Cc1ccco1)c1ncnc2[nH]cnc12 [(403)] | 39 | –
c1coc(CNc2nc(C3CC3)nc3[nH]cnc23)c1 [(65)] | 32 | –
Clc1nc(NCc2ccco2)c2nc(OCC3CCC3)[nH]c2n1 [(308)] | 310 | 0.15
Clc1nc(NCc2nccs2)c2nc(OCC#Cc3ccccc3)[nH]c2n1 [(476)] | 25.5 | –
Clc1nc(NCc2ccncc2Cl)c2nc[nH]c2n1 [(229)] | 55 | –
Clc1nc(NCc2nccs2)c2nc(C3CC3)[nH]c2n1 [(142)] | 121 | 16.1
Cc1cc(CNc2ncnc3[nH]cnc23)on1 [(8)] | 25 | –
COc1nc2c(NCc3cscn3)nc(Cl)nc2[nH]1 [(375)] | 134 | 2.18
Clc1nc(NCc2ccco2)c2ncn(Cc3ccccn3)c2n1 [(79)] | 43 | –
Clc1nc(NCc2nccs2)c2cn[nH]c2n1 [(222)] | 146 | 8.99
COCCCOc1nc2c(NCc3ccncc3)nc(Cl)nc2[nH]1 [(291)] | 165 | 3.47
CN(C)C(=O)c1cc2c(NCc3ccco3)nc(Cl)nc2[nH]1 [(195)] | 81 | –
OC[C@H]1O[C@@H](n2cnc3c(NCc4ccco4)ncnc32)[C@H](O)[C@@H]1O [(463)] | 90 | –
Clc1nc(NCc2ccco2)c2ccsc2n1 [(56)] | 152 | 8.23
CNC(=O)c1nc2c(NCc3ccco3)nc(Cl)nc2[nH]1 [(262)] | 64 | 28.4
OCCn1ncc2c(NCc3ccncc3)nc(Cl)nc21 [(218)] | 154 | 21
Clc1nc(NCc2ccco2)c2nc(OC3CCC3)[nH]c2n1 [(259)] | 109 | 0.38
COc1ccc(C(=O)Nc2ncnc3[nH]cnc23)cc1 [(441)] | 42.8 | –
CCCOc1nc2c(NCc3cscn3)nc(Cl)nc2[nH]1 [(389)] | 211 | 0.73
Clc1nc(NCc2ccncc2)c2nc(C3CC3)[nH]c2n1 [(141)] | 103 | –
Cc1c[nH]c2nc(Cl)nc(NCc3ccncn3)c12 [(126)] | 155 | 4.73
